The results in this text go back to patent US20240360194A1, “New Peptides as Potent and Selective GIP Receptor Agonists” (Sanofi, priority 2021, published 2024).

Series [1] in a line: Solubility assessment (UHPLC-UV of supernatant, target 10 mg/ml). The series is classed as physicochemical. As to conditions: for solubility at 24 h: pH 7.4, Soluble amount. How it is done: Prior to the solubility measurement of a peptide batch, its purity was determined through UHPLC/MS.
Therefore, solutions from solid samples were prepared in a buffer system with a concentration of 10 mg/ml compound based on the previously determined % purity: • Solubility buffer system A) 100 mM phosphate buffer pH 7.4 • Solubility buffer system B) 8 mM phosphate buffer pH 7.4, 14 mg/ml propylene glycol, 5.5 mg/ml phenol • Solubility buffer system C) 100 mM phosphate buffer pH 7.4, 2.7 mg/ml m-cresol
UHPLC-UV was performed after 1 h of gentle agitation and storage at 5° C. overnight (24 h) from the supernatant, which was obtained after 15 min of centrifugation at 2500 RCF (relative centrifugal acceleration).
The different UV extinction coefficients of sample and reference peptide were calculated based on the different amino acid sequences and considered in the concentration calculation.
The analytical method used was Analytical UHPLC Method A.
Peptide samples were prepared in solubility buffer system A or C and solubility was assessed as described in Methods.

For series [2], the target named is human GLP-1 receptor (hGLP-1R) (Homo sapiens, UniProt P43220). Description: In vitro cellular cAMP assay for GLP-1 receptor efficacy (HEK-293 cell line over-expressing receptor). The series is classed as cell-based. As to conditions: HEK-293, 0.1% BSA. On the technique in general: Changes in cAMP serve as a functional read-out for many G protein-coupled receptors.
human GLP-1 receptor (hGLP-1R), sequence (P43220 24-463): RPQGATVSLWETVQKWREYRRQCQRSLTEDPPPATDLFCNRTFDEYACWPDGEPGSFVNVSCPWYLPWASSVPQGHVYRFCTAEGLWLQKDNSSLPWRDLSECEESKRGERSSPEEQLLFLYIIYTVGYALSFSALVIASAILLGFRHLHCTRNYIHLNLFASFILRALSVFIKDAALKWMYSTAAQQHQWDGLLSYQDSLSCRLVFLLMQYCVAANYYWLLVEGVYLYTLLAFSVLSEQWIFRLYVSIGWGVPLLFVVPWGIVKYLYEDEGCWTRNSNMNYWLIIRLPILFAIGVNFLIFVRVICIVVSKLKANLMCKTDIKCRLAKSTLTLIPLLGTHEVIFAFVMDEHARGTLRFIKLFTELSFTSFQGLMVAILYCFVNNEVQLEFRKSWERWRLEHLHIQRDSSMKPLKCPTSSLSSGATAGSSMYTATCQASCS

In a further series the target is T1, human GIP receptor (Homo sapiens, UniProt P48546).
T1 construct: human adipocytes endogenously expressing the human GIP receptor; host or cells: human preadipocytes (Lonza) differentiated to adipocytes
T1 sequence (P48546 22-466): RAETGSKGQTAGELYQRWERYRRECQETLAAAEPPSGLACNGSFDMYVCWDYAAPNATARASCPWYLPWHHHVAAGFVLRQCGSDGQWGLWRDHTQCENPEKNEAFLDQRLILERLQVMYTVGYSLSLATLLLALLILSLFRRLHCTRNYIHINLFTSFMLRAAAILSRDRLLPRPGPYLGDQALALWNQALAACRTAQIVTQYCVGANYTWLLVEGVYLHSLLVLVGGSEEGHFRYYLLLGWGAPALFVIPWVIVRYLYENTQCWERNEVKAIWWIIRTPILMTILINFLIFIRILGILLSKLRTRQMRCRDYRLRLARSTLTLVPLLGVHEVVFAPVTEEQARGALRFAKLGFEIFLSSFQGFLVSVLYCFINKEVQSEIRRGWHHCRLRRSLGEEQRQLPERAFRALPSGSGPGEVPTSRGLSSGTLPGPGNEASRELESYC
The series is described as follows: In vitro cellular cAMP assay for GIP receptor efficacy (human adipocytes). It counts as cell-based. To be noted: for EC50: read-out: hGIPR EC50; for Emax: read-out: hGIPR Emax. On the procedure:
For this, one vial of human preadipocytes (˜10^6 cells; Lonza) was thawed in a T-75 cell culture dish. The cells were cultivated at 37° C., 5% CO2, 95% humidity in Preadipocyte Growth Medium with Supplement Mix from Promo Cell.
After 3 days, the cells were washed with PBS and 1.5 ml Trypsin, incubated for 4 min, then resuspended in medium, centrifugated for 10 min @ 300 rcf RT, resuspended again and distributed to four T-75 cell culture dishes. Again, the cells were cultivated at 37° C., 5% CO2, 95% humidity.
After 5 days, the cells were washed with PBS and 1.5 ml Trypsin, incubated for 4 min, then resuspended in medium, centrifugated for 10 min @ 300 rcf RT, resuspended again and sawn in T-75 dishes (2.5×10^6 cells per dish) in 15 ml Differentiation medium each.
The differentiation medium had the following composition: DMEM (Gibco), Ham's F10 (Gibco), 15 mM HEPES (Gibco), 3% FCS (PAA), 33 μM biotin (Sigma-Aldrich), 17 μM Pantothenate (Sigma-Aldrich), 0.1 μM human insulin (Sigma-Aldrich), 1 μM dexamethason (Sigma-Aldrich), 0.1 μM PPARgamma agonist (#R2408, Sigma-Aldrich), 0.6×Anti-Anti (#15240, ThermoFisher), 200 μM IBMX (AppliChem), and 0.01 μM L-thyroxine (Sigma-Aldrich).
After 6 days of differentiation, 5000 cells per well were dispensed on a 96-well plate (#CLS3694 from Corning®, Sigma-Aldrich). For measurement of cAMP generation, 25 μL of test compound was added to each well of the 96-well plate, followed by incubation for 30 min at room temperature.
The cAMP generated following test compound stimulation was determined using a kit from Cisbio Corp. based on HTRF (Homogenous Time Resolved Fluorescence). The cAMP assay was performed according to manufacturer's instructions (Cisbio).
The cAMP content of cells was determined using a kit from Cisbio Corp. based on HTRF (Homogenous Time Resolved Fluorescence).
After addition of HTRF reagents diluted in lysis buffer (kit components), the plates were incubated for 1 h, followed by measurement of the fluorescence ratio at 665/620 nm.

Series [3] addresses T2, human GIP receptor (hGIPR) (Homo sapiens, UniProt P48546).
T2 sequence (P48546 22-466): T1 sequence (P48546 22-466)
Description: Binding assay, displacement of [125I]GIP from HEK-293 membranes over-expressing GIPR (SPA). As to conditions: [125I]GIP displacement. On the procedure:
(1) Preparation of Membranes from HEK-293 Cells Over-Expressing GIPR or GLP-1R
HEK-293 cells recombinantly over-expressing GIPR or GLP-1R were grown to 50% confluency, washed with warm 1×PBS (Gibco) and detached in HEPES/EDTA-buffer (100 mM HEPES pH 7.5, 5 mM EDTA). Cells were harvested by centrifugation at 4° C. and 3000×g and the pellets were stored at −80° C. until further processing.
After thawing on ice, pellets were resuspended in HEPES/EDTA-buffer and homogenized on ice for 1 min using Ultra-Turray T25. After subsequent sonification the cell debris was removed by centrifugation at 1000×g and 4° C. Supernatants were then ultra-centrifuged at 100000×g and 4° C. under vacuum for 30 min. Pellets were resuspended in HEPES/EDTA/NaCl-buffer (20 mM HEPES, 1 mM EDTA, 150 mM NaCl; add 1 Complete Mini Protease inhibitor cocktail to 10 ml buffer) and protein content was determined via BCA-Protein assay.
(2) Measurement of Binding Activity of Test Compounds to Human GIPR or GLP-1R

SMILES strings stand for the structures. ≈ marks a conversion by molar mass, not a printed value. Numbered stars: 1 amine (or outer) side, 2 acyl side, 3 side chain; on linkers, the order of the positions; unused ones are H or OH. Square brackets hold non-standard residues; d marks the D form. Side chains are listed from the residue outwards. Peptide text beside a SMILES is read from it. * marks the point of attachment. C18 diacid = O=C(O)CCCCCCCCCCCCCCCCC(=O)*; γGlu = O=C(O)[C@H](CCC(=O)[*:2])N[*:1]; αMeF = C[C@](N)(Cc1ccccc1)C(=O)O; hLeu = CC(C)CC[C@H](N)C(=O)O; AEEA = NCCOCCOCC(=O)O; Aib = CC(C)(N)C(=O)O

By solubility is commonly meant the dissolved amount per volume that the medium holds. A lower solubility goes with a poorly soluble substance. Broadly, the EC50 is the concentration that produces a half-maximal response. A word on the Emax: it is the maximal effect, on the per cent scale that the assay sets. As a reminder, the IC50 is the concentration that gives 50% inhibition. Higher therefore signals weaker potency. For the molecule `CC[C@H](C)[C@H](NC(=O)[C@H](CCCNC(=N)N)NC(=O)[C@H](CC(=O)O)NC(=O)[C@H](CCCCNC(=O)COCCOCCNC(=O)COCCOCCNC(=O)CC[C@H](NC(=O)CCCCCCCCCCCCCCCCC(=O)O)C(=O)O)NC(=O)C(C)(C)NC(=O)[C@@H](NC(=O)[C@H](CO)NC(=O)[C@H](CC(C)C)NC(=O)[C@H](CC(=O)O)NC(=O)[C@H](CO)NC(=O)[C@@H](NC(=O)[C@H](Cc1ccccc1)NC(=O)[C@@H](NC(=O)CNC(=O)[C@H](CCC(=O)O)NC(=O)C(C)(C)NC(=O)[C@@H](N)Cc1ccc(O)cc1)[C@@H](C)O)[C@@H](C)CC)[C@@H](C)CC)C(=O)N[C@@H](Cc1c[nH]cn1)C(=O)N[C@@H](CCC(N)=O)C(=O)NC(C)(C)C(=O)N[C@@H](CCC(=O)O)C(=O)N[C@@H](Cc1ccccc1)C(=O)N[C@H](C(=O)N[C@@H](CCC(=O)O)C(=O)N[C@@H](Cc1c[nH]c2ccccc12)C(=O)N[C@@H](CC(C)C)C(=O)N[C@@H](CC(C)C)C(=O)N[C@@H](C)C(=O)N[C@@H](CCC(N)=O)C(=O)N[C@@H](CCCNC(=N)N)C(=O)N1CCC[C@H]1C(=O)N[C@@H](CO)C(=O)N[C@@H](CO)C(=O)NCC(=O)N[C@@H](C)C(=O)N1CCC[C@H]1C(=O)N1CCC[C@H]1C(=O)N1CCC[C@H]1C(=O)N[C@@H](CO)C(N)=O)[C@@H](C)CC` [SEQ ID NO: 30, H2N-Y-Aib-E-G-T-F-I-S-D-L-S-I-Aib-K[{AEEA}2-gGlu-C18OH]-D-R-I-H-Q-Aib-E-F-I-E-W-L-L-A-Q-R-P-S-S-G-A-P-P-P-S-NH2] (H-Y[Aib]EGTFISDLSI[Aib]K([AEEA-AEEA-γGlu-C18 diacid])DRIHQ[Aib]EFIEWLLAQRPSSGAPPPS-NH2), the solubility at 24 h in series [1] was 8400 µg/mL (≈ 1660 µM). For the same molecule, in series [2], the EC50 was above 10 nM. Also, at human GIP receptor, the 50% effective concentration (EC50) was 0.5 nM and the Emax amounted to 138%. The same molecule gave an IC50 in series [3] of 0.1 nM.
For `CC[C@H](C)[C@H](NC(=O)[C@H](CCCNC(=N)N)NC(=O)[C@H](CC(=O)O)NC(=O)[C@H](CCCCNC(=O)COCCOCCNC(=O)COCCOCCNC(=O)CC[C@H](NC(=O)CCCCCCCCCCCCCCCCC(=O)O)C(=O)O)NC(=O)C(C)(C)NC(=O)[C@@H](NC(=O)[C@H](CO)NC(=O)[C@H](CC(C)C)NC(=O)[C@H](CC(=O)O)NC(=O)[C@H](CO)NC(=O)[C@@H](NC(=O)[C@H](Cc1ccccc1)NC(=O)[C@@H](NC(=O)CNC(=O)[C@H](CCC(=O)O)NC(=O)C(C)(C)NC(=O)[C@@H](N)Cc1ccc(O)cc1)[C@@H](C)O)[C@@H](C)CC)[C@@H](C)CC)C(=O)N[C@@H](Cc1c[nH]cn1)C(=O)N[C@@H](CCC(N)=O)C(=O)N[C@@H](CCC(=O)O)C(=O)N[C@@H](CCC(=O)O)C(=O)N[C@@](C)(Cc1ccccc1)C(=O)N[C@H](C(=O)N[C@@H](CCC(=O)O)C(=O)N[C@@H](Cc1c[nH]c2ccccc12)C(=O)N[C@@H](CC(C)C)C(=O)N[C@@H](CC(C)C)C(=O)N[C@@H](C)C(=O)N[C@@H](CCC(N)=O)C(=O)NCC(=O)N1CCC[C@H]1C(=O)N[C@@H](CO)C(=O)N[C@@H](CO)C(=O)NCC(=O)N[C@@H](C)C(=O)N1CCC[C@H]1C(=O)N1CCC[C@H]1C(=O)N1CCC[C@H]1C(=O)N[C@@H](CO)C(N)=O)[C@@H](C)CC` [SEQ ID NO: 32, H2N-Y-Aib-E-G-T-F-I-S-D-L-S-I-Aib-K[{AEEA}2-gGlu-C18OH]-D-R-I-H-Q-E-E-Mph-I-E-W-L-L-A-Q-G-P-S-S-G-A-P-P-P-S-NH2] (H-Y[Aib]EGTFISDLSI[Aib]K([AEEA-AEEA-γGlu-C18 diacid])DRIHQEE[αMeF]IEWLLAQGPSSGAPPPS-NH2) the same measures were 8200 µg/mL (≈ 1630 µM), above 10 nM, 0.6 nM, 109% and 0.9 nM.
In the case of `CC[C@H](C)[C@H](NC(=O)[C@H](Cc1ccccc1)NC(=O)[C@H](CCC(=O)O)NC(=O)[C@H](CCC(=O)O)NC(=O)[C@H](CCC(N)=O)NC(=O)[C@H](Cc1c[nH]cn1)NC(=O)[C@@H](NC(=O)[C@H](CCCNC(=N)N)NC(=O)[C@H](CC(=O)O)NC(=O)[C@H](CCCCNC(=O)COCCOCCNC(=O)COCCOCCNC(=O)CC[C@H](NC(=O)CCCCCCCCCCCCCCCCC(=O)O)C(=O)O)NC(=O)C(C)(C)NC(=O)[C@@H](NC(=O)[C@H](CO)NC(=O)[C@H](CCC(C)C)NC(=O)[C@H](CC(=O)O)NC(=O)[C@H](CO)NC(=O)[C@@H](NC(=O)[C@H](Cc1ccccc1)NC(=O)[C@@H](NC(=O)CNC(=O)[C@H](CCC(=O)O)NC(=O)C(C)(C)NC(=O)[C@@H](N)Cc1ccc(O)cc1)[C@@H](C)O)[C@@H](C)CC)[C@@H](C)CC)[C@@H](C)CC)C(=O)N[C@@H](CCC(=O)O)C(=O)N[C@@H](Cc1c[nH]c2ccccc12)C(=O)N[C@@H](CC(C)C)C(=O)N[C@@H](CC(C)C)C(=O)N[C@@H](C)C(=O)N[C@@H](CCC(N)=O)C(=O)NCC(=O)N1CCC[C@H]1C(=O)N[C@@H](CO)C(=O)N[C@@H](CO)C(=O)NCC(=O)N[C@@H](C)C(=O)N1CCC[C@H]1C(=O)N1CCC[C@H]1C(=O)N1CCC[C@H]1C(=O)N[C@@H](CO)C(N)=O` [SEQ ID NO: 34, H2N-Y-Aib-E-G-T-F-I-S-D-Hol-S-I-Aib-K[{AEEA}2-gGlu-C18OH]-DRIHQEEFIEWLLAQGPSSGAPPPS-NH2] (H-Y[Aib]EGTFISD[hLeu]SI[Aib]K([AEEA-AEEA-γGlu-C18 diacid])DRIHQEEFIEWLLAQGPSSGAPPPS-NH2), the Soluble amount in series [1] (24 h, pH 7.4) is above 8.7 mg/mL. In series [1], the solubility at 24 h is above 9200 µg/mL. In series [2], this molecule yielded an EC50 above 10 nM. Also, on human GIP receptor, the 50% effective concentration (EC50) stood at 0.5 nM and the Emax came out at 112%. Moreover, in series [3], the IC50 was 0.3 nM.
